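Five concentrations, 48 hours, 96-well plates. TGI: total growth inhibition.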
Experiments:
Assay in all cases: NCI-60 cell line screen, 48 h
SR leukemia = test system: SR leukemia
NCI-H23 lung = test system: NCI-H23 lung
UO-31 renal = test system: UO-31 renal
UACC-257 melanoma = test system: UACC-257 melanoma
OVCAR-4 ovarian = test system: OVCAR-4 ovarian
PC-3 prostate = test system: PC-3 prostate
EKVX NSCLC = test system: EKVX NSCLC
SW-620 colon = test system: SW-620 colon
MDA-MB-435 = test system: MDA-MB-435
NCI-H460 lung = test system: NCI-H460 lung
SF-539 CNS = test system: SF-539 CNS
OVCAR-8 ovarian = test system: OVCAR-8 ovarian
MDA-MB-231 breast = test system: MDA-MB-231 breast
K-562 leukemia = test system: K-562 leukemia
HS 578T breast = test system: HS 578T breast
SF-268 CNS = test system: SF-268 CNS
RPMI-8226 leukemia = test system: RPMI-8226 leukemia
DU-145 prostate = test system: DU-145 prostate
M14 melanoma = test system: M14 melanoma
RXF 393 renal = test system: RXF 393 renal
UACC-62 melanoma = test system: UACC-62 melanoma
T-47D breast = test system: T-47D breast
OVCAR-3 ovarian = test system: OVCAR-3 ovarian
786-0 renal = test system: 786-0 renal
CCRF-CEM leukemia = test system: CCRF-CEM leukemia
A549 NSCLC = test system: A549 NSCLC
HCT-15 colon = test system: HCT-15 colon
KM12 colon = test system: KM12 colon
MCF7 breast = test system: MCF7 breast
IGROV1 ovarian = test system: IGROV1 ovarian
HOP-62 NSCLC = test system: HOP-62 NSCLC
U251 CNS = test system: U251 CNS
SNB-75 CNS = test system: SNB-75 CNS
NCI-H226 lung = test system: NCI-H226 lung
SK-MEL-28 melanoma = test system: SK-MEL-28 melanoma
TK-10 renal = test system: TK-10 renal
SN12C renal = test system: SN12C renal
HCT-116 colon = test system: HCT-116 colon
CAKI-1 renal = test system: CAKI-1 renal
OVCAR-5 ovarian = test system: OVCAR-5 ovarian
COLO 205 colon = test system: COLO 205 colon
SF-295 CNS = test system: SF-295 CNS
A498 renal = test system: A498 renal
MALME-3M melanoma = test system: MALME-3M melanoma
SK-MEL-2 melanoma = test system: SK-MEL-2 melanoma
ACHN renal = test system: ACHN renal
MOLT-4 leukemia = test system: MOLT-4 leukemia
SK-MEL-5 melanoma = test system: SK-MEL-5 melanoma
NCI-H522 lung = test system: NCI-H522 lung
LOX IMVI melanoma = test system: LOX IMVI melanoma
HT29 colon = test system: HT29 colon

Question: O=[N+]([O-])c1cc(Cl)c(Cl)cc1[N+](=O)[O-] was tested. Which TGI (SR leukemia) did it give?
Answer: The TGI was 4.98 µM.

Question: What about the TGI (NCI-H23 lung) of the same compound?
Answer: Its TGI is 4.83 µM.

Question: And the TGI (UO-31 renal)?
Answer: Its TGI is 3.62 µM.

Question: And the TGI (UACC-257 melanoma)?
Answer: The TGI was 4.1 µM.

Question: And the TGI (OVCAR-4 ovarian)?
Answer: The TGI was 4.63 µM.

Question: What about the TGI (PC-3 prostate) of the same compound?
Answer: Its TGI is 3.94 µM.

Question: What about the TGI (EKVX NSCLC) of the same compound?
Answer: The TGI was 8.81 µM.

Question: What about the TGI (SW-620 colon) of the same compound?
Answer: The TGI was 7.73 µM.

Question: And the TGI (MDA-MB-435)?
Answer: Its TGI is 12.8 µM.

Question: What about the TGI (NCI-H460 lung) of the same compound?
Answer: Its TGI is 12.3 µM.

Question: And the TGI (SF-539 CNS)?
Answer: Its TGI is 4.68 µM.

Question: And the TGI (OVCAR-8 ovarian)?
Answer: The TGI was 5.99 µM.

Question: What about the TGI (MDA-MB-231 breast) of the same compound?
Answer: Its TGI is 4.38 µM.

Question: And the TGI (K-562 leukemia)?
Answer: Its TGI is 5.81 µM.

Question: And the TGI (HS 578T breast)?
Answer: Its TGI is 72.3 µM.

Question: And the TGI (SF-268 CNS)?
Answer: Its TGI is 3.66 µM.

Question: And the TGI (RPMI-8226 leukemia)?
Answer: Its TGI is 15.2 µM.

Question: And the TGI (DU-145 prostate)?
Answer: The TGI was 4.42 µM.

Question: And the TGI (M14 melanoma)?
Answer: Its TGI is 8.8 µM.

Question: And the TGI (RXF 393 renal)?
Answer: Its TGI is 3.48 µM.

Question: What about the TGI (UACC-62 melanoma) of the same compound?
Answer: Its TGI is 4.42 µM.

Question: And the TGI (T-47D breast)?
Answer: Its TGI is 6.63 µM.

Question: And the TGI (OVCAR-3 ovarian)?
Answer: Its TGI is 3.22 µM.

Question: What about the TGI (786-0 renal) of the same compound?
Answer: Its TGI is 6.36 µM.

Question: What about the TGI (CCRF-CEM leukemia) of the same compound?
Answer: Its TGI is greater than 100 µM.

Question: And the TGI (A549 NSCLC)?
Answer: The TGI was 4.97 µM.

Question: And the TGI (HCT-15 colon)?
Answer: Its TGI is 7.77 µM.

Question: And the TGI (KM12 colon)?
Answer: Its TGI is 13 µM.

Question: What about the TGI (MCF7 breast) of the same compound?
Answer: Its TGI is 4.85 µM.

Question: What about the TGI (IGROV1 ovarian) of the same compound?
Answer: The TGI was 3.44 µM.

Question: What about the TGI (HOP-62 NSCLC) of the same compound?
Answer: The TGI was 6.49 µM.

Question: What about the TGI (U251 CNS) of the same compound?
Answer: Its TGI is 3.82 µM.

Question: And the TGI (SNB-75 CNS)?
Answer: The TGI was 9.32 µM.

Question: What about the TGI (NCI-H226 lung) of the same compound?
Answer: Its TGI is 11 µM.

Question: What about the TGI (SK-MEL-28 melanoma) of the same compound?
Answer: Its TGI is 6.04 µM.

Question: What about the TGI (TK-10 renal) of the same compound?
Answer: Its TGI is 12.3 µM.

Question: What about the TGI (SN12C renal) of the same compound?
Answer: The TGI was 3.52 µM.

Question: What about the TGI (HCT-116 colon) of the same compound?
Answer: Its TGI is greater than 100 µM.

Question: And the TGI (CAKI-1 renal)?
Answer: The TGI was 4.28 µM.

Question: And the TGI (OVCAR-5 ovarian)?
Answer: Its TGI is 5.21 µM.

Question: What about the TGI (COLO 205 colon) of the same compound?
Answer: The TGI was 26.5 µM.

Question: What about the TGI (SF-295 CNS) of the same compound?
Answer: Its TGI is 5.23 µM.

Question: And the TGI (A498 renal)?
Answer: Its TGI is 33 µM.

Question: What about the TGI (MALME-3M melanoma) of the same compound?
Answer: Its TGI is 5.83 µM.

Question: What about the TGI (SK-MEL-2 melanoma) of the same compound?
Answer: Its TGI is 4.74 µM.

Question: What about the TGI (ACHN renal) of the same compound?
Answer: Its TGI is 6.51 µM.

Question: And the TGI (MOLT-4 leukemia)?
Answer: Its TGI is 797 nM.

Question: What about the TGI (SK-MEL-5 melanoma) of the same compound?
Answer: The TGI was 29.2 µM.

Question: What about the TGI (NCI-H522 lung) of the same compound?
Answer: The TGI was 3.36 µM.

Question: And the TGI (LOX IMVI melanoma)?
Answer: Its TGI is 4.74 µM.

Question: What about the TGI (HT29 colon) of the same compound?
Answer: The TGI was 26.9 µM.
